Test results published in ChEMBL document CHEMBL1909046, “DrugMatrix in vitro pharmacology data”.

Legend:
[1] = biological target: Sodium-dependent noradrenaline transporter (Homo sapiens, UniProt P23975); experiment: DRUGMATRIX: Norepinephrine Transporter radioligand binding (ligand: [125I] RTI-55); assay type: cell membranes, MDCK, Membrane; conditions: Not Active = under 50% inhibition at 10 µM
[2] = DRUGMATRIX: Imidazoline I2, Central radioligand binding (ligand: [3H] Idazoxan); assay type: cell membranes, Rattus norvegicus, Wistar, Cerebral cortex, Membrane; conditions: Not Active = under 50% inhibition at 10 µM
[3] = biological target: T1, Receptor-type tyrosine-protein phosphatase C (Homo sapiens, UniProt P08575); design: species or system Escherichia coli;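 note: inhibition of CD45 enzyme activity measured using DiFMUP as substrate; in other assays of this panel Not Active means under 50% inhibition at 10 µM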
T1 sequence (P08575 whole entry): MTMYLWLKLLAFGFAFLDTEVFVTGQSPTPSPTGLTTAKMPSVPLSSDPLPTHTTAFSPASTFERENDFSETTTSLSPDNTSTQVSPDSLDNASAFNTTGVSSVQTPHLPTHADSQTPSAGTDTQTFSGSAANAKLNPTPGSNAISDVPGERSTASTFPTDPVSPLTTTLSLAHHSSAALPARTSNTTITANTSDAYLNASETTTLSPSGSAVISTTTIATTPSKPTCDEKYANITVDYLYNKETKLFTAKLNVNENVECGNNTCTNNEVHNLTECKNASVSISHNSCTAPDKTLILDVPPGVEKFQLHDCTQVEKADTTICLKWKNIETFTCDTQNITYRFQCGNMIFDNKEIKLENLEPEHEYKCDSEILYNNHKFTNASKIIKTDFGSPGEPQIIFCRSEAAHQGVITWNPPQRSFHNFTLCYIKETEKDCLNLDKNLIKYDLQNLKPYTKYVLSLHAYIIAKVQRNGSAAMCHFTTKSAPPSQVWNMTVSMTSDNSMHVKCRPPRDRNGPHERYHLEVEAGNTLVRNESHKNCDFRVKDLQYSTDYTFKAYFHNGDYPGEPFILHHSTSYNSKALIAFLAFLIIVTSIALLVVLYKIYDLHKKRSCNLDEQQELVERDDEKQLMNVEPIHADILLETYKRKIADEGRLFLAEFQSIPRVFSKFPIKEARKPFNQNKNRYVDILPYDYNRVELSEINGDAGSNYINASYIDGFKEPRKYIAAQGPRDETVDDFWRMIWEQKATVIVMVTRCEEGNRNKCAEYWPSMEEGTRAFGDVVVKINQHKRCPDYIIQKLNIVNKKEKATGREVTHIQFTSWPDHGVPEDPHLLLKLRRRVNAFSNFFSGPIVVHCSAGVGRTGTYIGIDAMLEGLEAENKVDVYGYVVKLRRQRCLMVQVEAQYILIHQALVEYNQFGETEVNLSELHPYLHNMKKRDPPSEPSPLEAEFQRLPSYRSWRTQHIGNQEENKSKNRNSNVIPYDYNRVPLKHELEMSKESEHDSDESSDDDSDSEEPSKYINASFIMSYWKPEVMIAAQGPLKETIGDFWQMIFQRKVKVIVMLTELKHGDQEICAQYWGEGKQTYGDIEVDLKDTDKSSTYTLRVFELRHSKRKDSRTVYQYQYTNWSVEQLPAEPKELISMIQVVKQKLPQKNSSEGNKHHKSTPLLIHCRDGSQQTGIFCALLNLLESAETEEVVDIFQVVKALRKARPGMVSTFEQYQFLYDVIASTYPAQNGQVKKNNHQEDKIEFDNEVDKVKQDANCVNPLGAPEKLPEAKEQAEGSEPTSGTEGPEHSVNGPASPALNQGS

[4] = biological target: T2, Neuropeptide Y receptor type 1 (Homo sapiens, UniProt P25929); assay type: cell membranes, Membrane; conditions: sk-n-mc; note: in other assays of this panel Not Active means under 50% inhibition at 10 µM
T2 sequence (P25929 whole entry): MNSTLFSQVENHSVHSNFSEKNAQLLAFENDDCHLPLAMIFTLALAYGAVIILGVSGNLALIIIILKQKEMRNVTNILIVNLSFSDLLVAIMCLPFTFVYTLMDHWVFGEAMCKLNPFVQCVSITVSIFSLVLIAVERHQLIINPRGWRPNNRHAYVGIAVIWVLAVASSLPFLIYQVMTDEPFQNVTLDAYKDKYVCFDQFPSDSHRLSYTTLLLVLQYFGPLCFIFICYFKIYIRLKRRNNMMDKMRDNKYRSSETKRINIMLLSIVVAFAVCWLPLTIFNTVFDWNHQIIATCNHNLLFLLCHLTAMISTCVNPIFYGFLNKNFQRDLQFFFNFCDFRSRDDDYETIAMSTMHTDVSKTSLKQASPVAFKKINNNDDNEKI

[5] = biological target: Matrix metalloproteinase-9 (Homo sapiens, UniProt P14780); experiment: biochemical; assay type: cell-based;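 note: inhibition of isolated MMP-9 enzyme activity toward a synthetic peptide substrate, from the DrugMatrix protease screening panel; in other assays of this panel Not Active means under 50% inhibition at 10 µM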
B2 bradykinin receptor = biological target: T3, B2 bradykinin receptor (Homo sapiens, UniProt P30411); assay type: cell membranes, Membrane; conditions: chem-1; note: in other assays of this panel Not Active means under 50% inhibition at 10 µM
T3 sequence (P30411 whole entry): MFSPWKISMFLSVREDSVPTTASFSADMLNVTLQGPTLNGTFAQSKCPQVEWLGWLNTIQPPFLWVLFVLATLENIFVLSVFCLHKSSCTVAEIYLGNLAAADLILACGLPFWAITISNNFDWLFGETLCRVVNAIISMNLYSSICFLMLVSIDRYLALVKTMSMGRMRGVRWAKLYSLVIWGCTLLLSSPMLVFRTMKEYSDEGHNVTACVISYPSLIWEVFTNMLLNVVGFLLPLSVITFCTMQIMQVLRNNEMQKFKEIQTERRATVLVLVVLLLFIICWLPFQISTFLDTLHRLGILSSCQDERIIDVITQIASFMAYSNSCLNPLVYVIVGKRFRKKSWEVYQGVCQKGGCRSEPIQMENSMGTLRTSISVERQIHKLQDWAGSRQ

[6] = biological target: Mitogen-activated protein kinase 1 (Homo sapiens, UniProt P28482); experiment: DRUGMATRIX: Protein Serine/Threonine Kinase, ERK2 enzyme inhibition (substrate: Myelin Basic Protein); design: species or system Escherichia coli; conditions: Not Active = under 50% inhibition at 10 µM
Sequence of Mitogen-activated protein kinase 1 (P28482 whole entry): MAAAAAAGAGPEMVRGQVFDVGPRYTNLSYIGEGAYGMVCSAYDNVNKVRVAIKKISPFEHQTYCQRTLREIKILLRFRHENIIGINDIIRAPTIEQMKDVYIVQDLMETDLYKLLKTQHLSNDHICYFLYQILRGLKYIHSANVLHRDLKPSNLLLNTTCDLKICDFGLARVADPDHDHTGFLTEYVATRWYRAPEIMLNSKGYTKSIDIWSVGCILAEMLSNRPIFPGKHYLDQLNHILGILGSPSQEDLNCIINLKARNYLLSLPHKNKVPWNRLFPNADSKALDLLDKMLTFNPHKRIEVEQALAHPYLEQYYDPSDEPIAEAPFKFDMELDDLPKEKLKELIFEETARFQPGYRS

Sequence of Matrix metalloproteinase-9 (P14780 whole entry): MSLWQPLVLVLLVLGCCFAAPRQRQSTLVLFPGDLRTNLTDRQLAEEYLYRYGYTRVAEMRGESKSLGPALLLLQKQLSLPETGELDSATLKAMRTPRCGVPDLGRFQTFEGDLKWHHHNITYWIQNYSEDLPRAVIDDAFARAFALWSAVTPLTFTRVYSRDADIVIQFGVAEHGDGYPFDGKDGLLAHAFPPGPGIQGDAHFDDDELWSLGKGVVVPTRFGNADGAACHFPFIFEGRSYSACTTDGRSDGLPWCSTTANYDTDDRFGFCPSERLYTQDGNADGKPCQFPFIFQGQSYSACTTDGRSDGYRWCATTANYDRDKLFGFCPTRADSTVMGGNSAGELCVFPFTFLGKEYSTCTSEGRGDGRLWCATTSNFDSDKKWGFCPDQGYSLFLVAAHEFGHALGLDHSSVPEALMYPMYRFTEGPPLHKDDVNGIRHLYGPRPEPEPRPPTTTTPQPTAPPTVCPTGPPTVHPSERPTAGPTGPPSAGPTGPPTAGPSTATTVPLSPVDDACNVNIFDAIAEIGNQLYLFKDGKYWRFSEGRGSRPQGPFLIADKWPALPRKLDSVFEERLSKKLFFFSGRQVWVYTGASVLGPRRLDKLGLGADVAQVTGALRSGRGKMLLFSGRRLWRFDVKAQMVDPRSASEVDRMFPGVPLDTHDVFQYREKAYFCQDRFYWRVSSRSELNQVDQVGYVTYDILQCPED
Sequence of Sodium-dependent noradrenaline transporter (P23975 whole entry): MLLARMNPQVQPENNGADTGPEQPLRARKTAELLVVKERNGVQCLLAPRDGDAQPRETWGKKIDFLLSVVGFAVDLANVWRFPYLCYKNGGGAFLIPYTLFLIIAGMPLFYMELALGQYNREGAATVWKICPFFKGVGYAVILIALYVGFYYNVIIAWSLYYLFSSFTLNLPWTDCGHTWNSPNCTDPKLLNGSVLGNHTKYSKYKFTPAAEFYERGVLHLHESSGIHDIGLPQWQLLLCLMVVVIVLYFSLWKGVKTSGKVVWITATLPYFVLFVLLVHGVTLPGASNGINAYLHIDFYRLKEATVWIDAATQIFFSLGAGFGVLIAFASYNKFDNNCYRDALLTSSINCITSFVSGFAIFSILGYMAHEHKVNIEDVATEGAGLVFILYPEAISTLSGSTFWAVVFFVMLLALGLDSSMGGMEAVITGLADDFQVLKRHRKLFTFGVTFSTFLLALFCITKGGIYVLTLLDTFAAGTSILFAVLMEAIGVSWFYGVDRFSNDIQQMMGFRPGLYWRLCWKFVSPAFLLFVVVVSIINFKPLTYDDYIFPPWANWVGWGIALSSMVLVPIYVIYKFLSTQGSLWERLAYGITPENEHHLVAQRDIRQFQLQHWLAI

SMILES	IC50 ([1]; mdck)	IC50 [2]	Ki [2]	IC50 [3]	IC50 [4]	IC50 [5]	IC50 (B2 bradykinin receptor)	IC50 [6]	IC50 ([1]; read-out: IC50)	Ki ([1]; read-out: Ki)	IC50 ([2]; read-out: IC50)	Ki ([2]; read-out: Ki)	Ki ([1]; mdck)	Ki [3]	Ki [4]	Ki [5]	Ki (B2 bradykinin receptor)	Ki [6]
CC(C)CN(C[C@@H](O)[C@H](Cc1ccccc1)NC(=O)O[C@H]1CCOC1)S(=O)(=O)c1ccc(N)cc1	Not Active	Not Active	Not Active	Not Active	Not Active	Not Active	Not Active	Not Active	–	–	–	–	–	–	–	–	–	–
c1ccc(Nc2ccc(Nc3ccccc3)cc2)cc1	–	Not Active	Not Active	Not Active	Not Active	Not Active	Not Active	Not Active	786 nM	780 nM	–	–	–	–	–	–	–	–
COc1cc2c3cc1Oc1cc(ccc1O)C[C@@H]1c4c(cc(OC)c(O)c4Oc4ccc(cc4)C[C@@H]3N(C)CC2)CC[N+]1(C)C.[Cl-]	Not Active	Not Active	Not Active	Not Active	Not Active	Not Active	Not Active	Not Active	–	–	–	–	–	–	–	–	–	–
NC(=O)N1c2ccccc2CCc2ccccc21	Not Active	Not Active	Not Active	Not Active	Not Active	Not Active	Not Active	Not Active	–	–	–	–	–	–	–	–	–	–
O=C1CC[C@@H](N2C(=O)c3ccccc3C2=O)C(=O)N1	Not Active	Not Active	Not Active	Not Active	Not Active	Not Active	Not Active	Not Active	–	–	–	–	–	–	–	–	–	–
Cc1onc(O)c1CC(N)C(=O)O (racemic) [(R,S)-AMPA]	Not Active	Not Active	Not Active	Not Active	Not Active	Not Active	Not Active	Not Active	–	–	–	–	–	–	–	–	–	–
Cc1ccc2cc3c(ccc4ccccc43)c3c2c1CC3 [3-METHYLCHOLANTHRENE]	–	Not Active	Not Active	Not Active	Not Active	Not Active	Not Active	Not Active	29700 nM	29400 nM	–	–	–	–	–	–	–	–
CC[C@@]1(O)C[C@H](O[C@H]2C[C@H](N(C)C)[C@H](O[C@H]3C[C@H](O)[C@H](O[C@H]4CCC(=O)[C@H](C)O4)[C@H](C)O3)[C@H](C)O2)c2c(cc3c(c2O)C(=O)c2c(O)cccc2C3=O)[C@H]1C(=O)OC [ACLARUBICIN]	Not Active	Not Active	Not Active	Not Active	Not Active	Not Active	Not Active	Not Active	–	–	–	–	–	–	–	–	–	–
Nc1nc2c(ncn2COCCO)c(=O)[nH]1 [ACYCLOVIR]	Not Active	Not Active	Not Active	Not Active	Not Active	Not Active	Not Active	Not Active	–	–	–	–	–	–	–	–	–	–
Cc1c(C)c2c(c(C)c1O)CC[C@@](C)(CCC[C@H](C)CCC[C@H](C)CCCC(C)C)O2 [ALPHA-TOCOPHEROL]	Not Active	Not Active	Not Active	Not Active	Not Active	Not Active	Not Active	Not Active	–	–	–	–	–	–	–	–	–	–
CN(C)c1nc(N(C)C)nc(N(C)C)n1 [ALTRETAMINE]	Not Active	Not Active	Not Active	Not Active	Not Active	Not Active	Not Active	Not Active	–	–	–	–	–	–	–	–	–	–
Nc1c(Br)cc(Br)cc1CN[C@H]1CC[C@H](O)CC1 [AMBROXOL]	Not Active	Not Active	Not Active	Not Active	Not Active	Not Active	Not Active	Not Active	–	–	–	–	–	–	–	–	–	–
NCCCCCC(=O)O [AMINOCAPROIC ACID]	Not Active	Not Active	Not Active	Not Active	Not Active	Not Active	Not Active	Not Active	–	–	–	–	–	–	–	–	–	–
CCC1(c2ccc(N)cc2)CCC(=O)NC1=O (configuration not stated) [AMINOGLUTETHIMIDE]	Not Active	Not Active	Not Active	Not Active	Not Active	Not Active	Not Active	Not Active	–	–	–	–	–	–	–	–	–	–
Cc1ccc(/N=C/N(C)/C=N/c2ccc(C)cc2C)c(C)c1 [AMITRAZ]	Not Active	–	–	Not Active	Not Active	Not Active	Not Active	Not Active	–	–	47.7 nM	31.8 nM	–	–	–	–	–	–
CCOC(=O)C1=C(COCCN)NC(C)=C(C(=O)OC)C1c1ccccc1Cl (configuration not stated) [AMLODIPINE]	Not Active	Not Active	Not Active	Not Active	Not Active	Not Active	Not Active	Not Active	–	–	–	–	–	–	–	–	–	–
COc1ccc(C[C@H]2NC[C@H](O)[C@H]2OC(C)=O)cc1 [ANISOMYCIN]	Not Active	Not Active	Not Active	Not Active	Not Active	Not Active	Not Active	Not Active	–	–	–	–	Not Active	Not Active	Not Active	Not Active	Not Active	Not Active
Nc1ncn([C@@H]2O[C@H](CO)[C@@H](O)[C@H]2O)c(=O)n1 [AZACITIDINE]	Not Active	Not Active	Not Active	Not Active	Not Active	Not Active	Not Active	Not Active	–	–	–	–	–	–	–	–	–	–
CN(C)C(=O)Oc1cc(OC(=O)N(C)C)cc(C(O)CNC(C)(C)C)c1 (configuration not stated) [BAMBUTEROL]	Not Active	Not Active	Not Active	Not Active	Not Active	Not Active	Not Active	Not Active	–	–	–	–	–	–	–	–	–	–
c1ccc2c(c1)c1cccc3ccc4cccc2c4c31 [BENZO[E]PYRENE]	Not Active	Not Active	Not Active	Not Active	Not Active	Not Active	Not Active	Not Active	–	–	–	–	–	–	–	–	–	–
CN(C)CCCN1c2ccccc2Sc2ccc(Cl)cc21 [CHLORPROMAZINE]	–	–	–	Not Active	Not Active	Not Active	Not Active	Not Active	–	–	2670 nM	1780 nM	–	–	–	–	–	–
CNCCCN1c2ccccc2CCc2ccccc21 [DESIPRAMINE]	–	Not Active	Not Active	Not Active	Not Active	Not Active	Not Active	Not Active	–	–	–	–	–	–	–	–	–	–
